Experimental data from US12122750B2, “AT2R antagonists and uses thereof” (Eli Lilly and Company, priority 2022, dated 2024).

Molecular target: recombinant human angiotensin-II receptor subtype 2 (hAT2R) (Homo sapiens (Human), UniProt P50052)
Assay: Competitive radioligand binding assay (SPA), hAT2R HEK293 membranes
Settings: [125I]-Tyr4-Angiotensin-II, read-out: AT2R Ki
Description: Compound Solubilization Test and reference compounds were received as dry powder reagents, weighed, and solubilized in 100% DMSO to generate a working stock concentration of 10 mM. Membrane Preparation Protocol (hAT2R HEK293 and rAT2R HEK293) hAT2R membranes were prepared from human embryonic kidney (HEK293) cells which were stably transfected with recombinant human angiotensin-II receptor subtype 2 (hAT2R). Cells from the stable cell lines were expanded in tissue culture flasks to generate a large population of cells; cell pellet (>1 gm), and these cell pellets were stored frozen prior to initiating this membrane isolation procedure for each receptor isoform. Frozen cell pellets were thawed in ice-cold homogenization/resuspension buffer (50 mM Tris-HCl, pH 7.5) containing one Complete© protease inhibitor tablet with EDTA (Roche Diagnostics) per 50 mL buffer, and cell pellet was resuspended at a ratio of 10 mL homogenization buffer to gram of starting cell pellet. Cell suspension was homogenized with an overhead motor-driven Teflon-glass homogenizer using 15 to 20 strokes, followed by centrifugation at 1100×g for 10 minutes at 4° C. The supernatant was saved on ice, pellets were homogenized as before, and centrifuged at 1100×g for 10 minutes at 4° C. Both supernatants were combined and subsequently centrifuged at 35,000×g for 60 minutes at 4° C. The final centrifugation pellet (pellet 2) containing the isolated membranes was resuspended in buffer (4 to 5 mL/g of starting cell paste) containing protease inhibitors and quick frozen in liquid nitrogen prior to storage at -80° C. Protein concentration was determined using a BCA kit (ThermoScientific, Inc.) with bovine serum albumin (BSA) as standard. […] The assays were performed with a scintillation proximity assay (SPA) method using polyvinyltoluene (PVT) wheat germ agglutinin-coupled SPA beads (Perkin Elmer Cat. #RPNQ0001). Assay buffer containing BSA (50 mM Tris-HCl, pH 7.5, 150 mM NaCl, 0.1% w/v fatty-acid free BSA) was used for preparing radioligand, membrane and SPA bead reagent dilution to working stock concentrations. Reference control and test compounds were diluted to obtain ten-point concentration response curves using a four-fold serial dilution protocol onto assay plates, dispensed acoustically from DMSO stock using automated ECHO instrument technology (Labcyte, Inc.). Concentration response curves were routinely generated with the highest final assay concentration for the reference angiotensin-II control at 50 nM, and the highest final assay concentration for the test compounds at 50 μM. […] The hAT2R membrane was combined with PVT-WGA SPA beads to obtain a final assay concentration of 0.25 μg/well hAT2R membrane+0.1 mg/well PVT-WGA SPA bead. And the hAT1R membrane PVT-WGA SPA bead final concentrations was 0.5 μg/well hAT1R membrane+0.1 mg/well PVT-WGA SPA bead. […] For all assays, radioligand addition was followed by the addition of membrane-SPA bead mixture, i.e., the hAT2R membrane-SPA bead mixture (30 μL), the rAT2R membrane-SPA bead mixture, or the AT1R membrane-SPA bead mixture (30 μL) into the assay plate. All dispensing steps were added using a Multiflo FX (Biotek, Inc.) bulk dispensing instrument. After reagent addition steps, assay plates were sealed, and plate contents mixed for one minute on a benchtop micro-plate shaker. Following a 10-hour incubation at room temperature to allow for bead settling and radioligand binding, bound radioactivity was quantitated using a Microbeta Trilux scintillation counter (Perkin Elmer) and expressed as counts per minute (CPM). The unlabeled angiotensin-II control was included on each plate as an experimental assay reference. […] Data Analysis Procedures Compounds were tested in a 10-point concentration response curve (CRC) format, with each plate containing the positive control angiotensin-II positive reference compound, and experimental compounds.

recombinant human angiotensin-II receptor subtype 2 (hAT2R), sequence (P50052 whole entry): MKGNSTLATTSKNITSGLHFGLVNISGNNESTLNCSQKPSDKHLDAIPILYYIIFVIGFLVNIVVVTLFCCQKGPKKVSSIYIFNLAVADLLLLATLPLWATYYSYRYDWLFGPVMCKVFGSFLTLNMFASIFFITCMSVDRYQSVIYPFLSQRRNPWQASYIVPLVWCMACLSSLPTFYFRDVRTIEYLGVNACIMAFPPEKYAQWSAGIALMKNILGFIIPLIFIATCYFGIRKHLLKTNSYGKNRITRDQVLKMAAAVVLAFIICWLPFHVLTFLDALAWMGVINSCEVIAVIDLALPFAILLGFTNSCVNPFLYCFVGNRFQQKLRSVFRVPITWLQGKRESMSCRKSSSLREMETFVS

SMILES | Ki
CC(C1CC1)N(C(=O)CC1(C(=O)O)CCN(C(=O)N(C)c2ccc(F)cc2)CC1)c1ccccc1 (single isomer, unassigned) [Example 43B, 4-[2-[N-(1-cyclopropylethyl)anilino]-2-oxo-ethyl]-1-[(4-fluorophenyl)-methyl-carbamoyl]piperidine-4-carboxylic acid] | 20.1 nM
O=C(N1CCC(CC(=O)N(c2ccccc2)C2CCCC(F)(F)C2)(C(=O)O)CC1)N1CCc2ccc(F)cc21 (single isomer, unassigned) [Example 72A, 4-[2-(N-(3,3-difluorocyclohexyl)anilino)-2-oxo-ethyl]-1-(6-fluoroindoline-1-carbonyl)piperidine-4-carboxylic acid] | 8.14 nM
CC(C)(C)OC(=O)N1CCC(CC(=O)N(c2ccccc2)C2CCCC(F)(F)C2)(C(=O)O)CC1 (single isomer, unassigned) [compound 42] | 3.94 nM
CCCCCn1c(Br)nnc1N1CCC(CC(=O)N(c2ccccc2)c2ccccc2)(C(=O)O)CC1 [Example 4, 1-(5-bromo-4-pentyl-1,2,4-triazol-3-yl)-4-[2-oxo-2-(N-phenylanilino)ethyl]piperidine-4-carboxylic acid] | 5.13 nM
O=C(CC1(C(=O)O)CCN(c2ncncc2C2CC2)CC1)N(c1ccccc1)c1ccccc1 [Example 5, 1-(5-cyclopropylpyrimidin-4-yl)-4-(2-(diphenylamino)-2-oxoethyl)piperidine-4-carboxylic acid] | 9.15 nM
O=C(N1CCC(CC(=O)N(c2ccccc2)C2CCCCC2)(C(=O)O)CC1)N1CCc2ccccc21 [Example 6, 4-[2-(N-cyclohexylanilino)-2-oxo-ethyl]-1-(indoline-1-carbonyl)piperidine-4-carboxylic acid] | 9.08 nM
CN(C(=O)N1CCC(CC(=O)N(c2ccccc2)C2CCC(F)(F)CC2)(C(=O)O)CC1)c1ccc(F)cc1 [Example 8, 4-[2-(N-(4,4-difluorocyclohexyl)anilino)-2-oxo-ethyl]-1-[(4-fluorophenyl)-methyl-carbamoyl]piperidine-4-carboxylic acid] | 3.02 nM
CN(C(=O)N1CCC(CC(=O)N(c2ccccc2)C2CCOCC2)(C(=O)O)CC1)c1ccc(C2CC2)cc1 [Example 26, 1-[(4-cyclopropylphenyl)-methyl-carbamoyl]-4-[2-oxo-2-(N-tetrahydropyran-4-ylanilino)ethyl]piperidine-4-carboxylic acid] | 5.39 nM
CC(C)N(C(=O)N1CCC(CC(=O)N(c2ccccc2)c2ccccc2F)(C(=O)O)CC1)c1ccc(F)cc1 [Example 38, 4-[2-(N-(2-fluorophenyl)anilino)-2-oxo-ethyl]-1-[(4-fluorophenyl)-isopropyl-carbamoyl]piperidine-4-carboxylic acid] | 6.46 nM
O=C(CC1(C(=O)O)CCN(c2ccccc2)CC1)N(c1ccccc1)C1CCCCC1 [Example 48, 4-[2-(N-cyclohexylanilino)-2-oxo-ethyl]-1-phenyl-piperidine-4-carboxylic acid] | 3.59 nM

The next compounds have a lower Ki than those just listed; values first:

Ki | SMILES
2.19 nM | CC(C1CC1)N(C(=O)CC1(C(=O)O)CCN(C(=O)N(C)c2ccc(F)cc2)CC1)c1ccccc1 (single isomer, unassigned) [Example 43A, 4-[2-[N-(1-cyclopropylethyl)anilino]-2-oxo-ethyl]-1-[(4-fluorophenyl)-methyl-carbamoyl]piperidine-4-carboxylic acid]
1.55 nM | CN(C(=O)N1CCC(CC(=O)N(c2ccccc2)C2CCCOC2)(C(=O)O)CC1)c1ccc(C2CC2)cc1 (single isomer, unassigned) [Example 45A, 1-[(4-cyclopropylphenyl)-methyl-carbamoyl]-4-[2-oxo-2-(N-tetrahydropyran-3-ylanilino)ethyl]piperidine-4-carboxylic acid]
2.68 nM | CN(C(=O)N1CCC(CC(=O)N(c2ccccc2)C2CCCOC2)(C(=O)O)CC1)c1ccc(C2CC2)cc1 (single isomer, unassigned) [Example 45B, 1-[(4-cyclopropylphenyl)-methyl-carbamoyl]-4-[2-oxo-2-(N-tetrahydropyran-3-ylanilino)ethyl]piperidine-4-carboxylic acid]
0.383 nM | O=C(N1CCC(CC(=O)N(c2ccccc2)C2CCCC(F)(F)C2)(C(=O)O)CC1)N1CCc2ccc(F)cc21 (single isomer, unassigned) [Example 72B, 4-[2-(N-(3,3-difluorocyclohexyl)anilino)-2-oxo-ethyl]-1-(6-fluoroindoline-1-carbonyl)piperidine-4-carboxylic acid]
2.62 nM | CN(C(=O)N1CCC(CC(=O)N(c2ccccc2)C2CCCC2)(C(=O)O)CC1)c1ccc(F)cc1 [Example 9, 4-[2-(N-cyclopentylanilino)-2-oxo-ethyl]-1-[(4-fluorophenyl)-methyl-carbamoyl]piperidine-4-carboxylic acid]
0.521 nM | CN(C(=O)N1CCC(CC(=O)N(c2ccccc2)C2CCCCC2)(C(=O)O)CC1)c1ccccc1F [Example 12, 4-[2-(N-cyclohexylanilino)-2-oxo-ethyl]-1-[(2-fluorophenyl)-methyl-carbamoyl]piperidine-4-carboxylic acid]
1.44 nM | Cc1ccc(N(C)C(=O)N2CCC(CC(=O)N(c3ccccc3)C3CCCCC3)(C(=O)O)CC2)cc1 [Example 13, 4-[2-(N-cyclohexylanilino)-2-oxo-ethyl]-1-[methyl(p-tolyl)carbamoyl]piperidine-4-carboxylic acid]
2.58 nM | COc1ccc(N(C)C(=O)N2CCC(CC(=O)N(c3ccccc3)C3CCCCC3)(C(=O)O)CC2)cc1 [Example 14, 4-[2-(N-cyclohexylanilino)-2-oxo-ethyl]-1-[(4-methoxyphenyl)-methyl-carbamoyl]piperidine-4-carboxylic acid]
1.69 nM | CCN(C(=O)N1CCC(CC(=O)N(c2ccccc2)C2CCCCC2)(C(=O)O)CC1)c1ccc(F)cc1 [Example 15, 4-[2-(N-cyclohexylanilino)-2-oxo-ethyl]-1-[ethyl-(4-fluorophenyl)carbamoyl]piperidine-4-carboxylic acid]
1.76 nM | O=C(CC1(C(=O)O)CCN(C(=O)N(c2ccc(F)cc2)C2CC2)CC1)N(c1ccccc1)C1CCCCC1 [Example 16, 4-[2-(N-cyclohexylanilino)-2-oxo-ethyl]-1-[cyclopropyl-(4-fluorophenyl)carbamoyl]piperidine-4-carboxylic acid]
1.94 nM | N#Cc1ccc2c(c1)N(C(=O)N1CCC(CC(=O)N(c3ccccc3)C3CCCCC3)(C(=O)O)CC1)CC2 [Example 33, 1-(6-cyanoindoline-1-carbonyl)-4-[2-(N-cyclohexylanilino)-2-oxo-ethyl]piperidine-4-carboxylic acid]
0.987 nM | Cc1ccccc1N(C(=O)CC1(C(=O)O)CCN(C(=O)N(C)c2ccc(F)cc2)CC1)c1ccccc1 [Example 37, 1-[(4-fluorophenyl)-methyl-carbamoyl]-4-[2-[N-(o-tolyl)anilino]-2-oxo-ethyl]piperidine-4-carboxylic acid]
2.82 nM | O=C(CC1(C(=O)O)CCN(C(=O)N(c2ccc(F)cc2)C2CC2)CC1)N(c1ccccc1)c1ccccc1 [Example 39, 1-[cyclopropyl-(4-fluorophenyl)carbamoyl]-4-[2-oxo-2-(N-phenylanilino)ethyl]piperidine-4-carboxylic acid]
1.37 nM | O=C(CC1(C(=O)O)CCN(C(=O)N(c2ccc(F)cc2)C2CC2)CC1)N(c1ccccc1)c1ccccc1F [Example 40, 1-[cyclopropyl-(4-fluorophenyl)carbamoyl]-4-[2-(N-(2-fluorophenyl)anilino)-2-oxo-ethyl]piperidine-4-carboxylic acid]
0.409 nM | CN(C(=O)N1CCC(CC(=O)N(c2ccccc2F)c2ccccc2F)(C(=O)O)CC1)c1ccccc1 [Example 46, 4-[2-(2-fluoro-N-(2-fluorophenyl)anilino)-2-oxo-ethyl]-1-[methyl(phenyl)carbamoyl]piperidine-4-carboxylic acid]
